For assay [1], the system named is collagénase issue de Clostridium histolyticum. Put plainly: Relative affinity by competitive binding, ultrafiltration and LC-MS (Examples 2, 3, 6). To be noted: for Affinités relatives: reference 3,5-DCQ. How it is done: Une solution de travail de collagénase issue de Clostridium histolyticum à 6.25 mg/mL est préparée en dissolvant de la poudre de l'enzyme lyophilisée dans 50 mM d'acétate d'ammonium, avec un pH de 7.5, ajusté par une solution aqueuse d'ammoniac. L'échantillon est préparé en utilisant l'un des solvants suivants : des glycols, le DMSO (diméthylsulfoxide), l'éthanol, pur ou en solution dans l'eau. La concentration dans l'échantillon des ligands initiaux est équimolaire et doit être dans la gamme de 0,75 à 1 mM. Les ligands choisis étaient des isomères d'acide 3,5-dicaféoylquinique (noté 3,5-DCQ par la suite) et des isomères d'esters d'acide 3,5-dicaféoylquinique et de dipropylène glycol (noté 3,5-DCQ-DPG par la suite). Un échantillon de référence est préparé également en diluant l'échantillon de 10 à 20 fois dans une solution d'eau et d'un quart de volume d'acétonitrile.
• 1. Étape de préconditionnement - Des puits à membrane filtrante sont pré-conditionnées avec un volume de 500 µl d'acétate d'ammonium 50mM pH 7,5 qui est passé à travers la membrane avec une centrifugation de 14000 g pendant 60 secondes. • 2. Étape de liaison - Un volume de 75 µl de la solution de collagénase à une concentration de 6,25mg/ml dans 50 mM d'acétate d'ammonium, avec un pH de 7.5 est mélangé avec 10 µl de l'échantillon pendant 10 min dans un tube d'Eppendorf en plastique. Dans ce mélange, on a 55,79 µM de collagénase et une gamme de 93,75 µM à 125 µM de ligands (3,5-DCQ et 3,5-DCQ-DPG) soit un ratio ligands/cible entre […]. • 3. Étape de lavage - Le mélange de l'enzyme et de l'échantillon est déposé dans un puits préconditionné à l'étape de préconditionnement, puis centrifugé à 14000 g jusqu'à l'élimination de l'essentiel du solvant. Les complexes enzyme-ligands restent à la surface de la membrane du filtre puis sont à nouveau suspendu dans un volume de 100 µL de la même solution à 50 mM d'acétate d'ammonium, avec un pH de 7.5 et centrifugé à 14000 g jusqu'à élimination du solvant. Cette procédure est répétée trois fois et élimine tous les composés qui ne sont pas liés à l'enzyme. • 4. Étape de séparation - Les complexes enzyme-ligands retenus dans le filtre sont à nouveau suspendus dans un volume de 10 µL d'eau ultra-pure, puis sont mélangés avec un volume de 40 µL d'acétonitrile pour dénaturer et précipiter l'enzyme et, en même temps libérer les ligands. Le mélange est centrifugé à 21000 g pendant 10 min pour séparer le précipité du surnageant. • 5. Étape d'analyse - Ledit surnageant formant la solution traitée est analysé par chromatographie en phase liquide couplée à une spectrométrie de masse. L'échantillon de référence est analysé également de la même manière, en utilisant les mêmes conditions d'analyse. Les affinités relatives sont calculées selon la méthode décrite ci-après. Le résultat est sur la première ligne du tableau 3.
Plusieurs échantillons sont préparés comme dans l'exemple 2, mais avec une proportion entre les ligands 3,5-DCQ et 3,5-DCQ-DPG non plus équimolaire mais déséquilibrée, comme indiqué dans le tableau 3 ci-après.
L'analyse est conduite de la même manière que dans l'exemple 2. Les résultats sont de la deuxième à la quatrième ligne du tableau 3.
La préparation des échantillons (ligands et cible) et leur analyse ont été réalisés selon l'exemple 2. Les effets des variations du rapport de ligands/cible ont été évalués.
Une analyse par chromatographie en phase liquide fournit un chromatogramme tel que montré par les figures 1 et 2. Le chromatogramme représente une intensité de signal en fonction du temps de rétention dans une colonne. Le signal présente différents pics d'intensité variable. Chaque pic est associé à l'un des ligands présent dans l'échantillon et la solution traitée. • 1. Normalisation de l'intensité du signal analytique pour les ligands dans l'échantillon de référence. […]

Assay [2] has the same test system. In words: Collagenase inhibition with synthetic substrate FALGPA (Example 4). It is filed as biochemical. To be noted: for activité de la collagénase: ligand 5µM, FALGPA 1 mM, tris-HCl buffer alone = 100%. The protocol: L'activité inhibitrice de la collagénase issue de Clostridium histolyticum a été expérimentée en mettant en présence de la collagénase et du substrat synthétique FALGPA (N-(3-[2-Furyl]acryloyl)-Leu-Gly-Pro-Ala) préparé à une concentration de 1 mM, du tampon tris-HCI seul pour établir une référence, et en présence respectivement de tampon tris-HCI additionné de 3,5-DCQ et 3,5-DCQ-DPG en concentration à 5µM. La référence montrant une activité de la collagénase de 100%, on a mesuré une activité de la collagénase de 94% en présence de 3,5-DCQ et une activité de 50% en présence de 3,5-DCQ-DPG. A cette concentration, la collagénase de Clostridium histolyticum est inhibée de manière significative par le 3,5-DCQ-DPG, tandis qu'elle ne l'est que très peu par le 3,5-DCQ.

Assay [3] concerns the target collagénase issue de Clostridium histolyticum. To be noted: J. Nat. Prod. 2005, 68, 794-796; cited from earlier work.
For the next assay, the system named is tyrosinase de champignon. Put plainly: Relative affinity by competitive binding, ultrafiltration and UPLC-MS/UV (Example 1). To be noted: equimolar ligands; for Facteur de normalisation, solution traitée: NFTB, peak area UV 270 nm relative to reference ligand moracénine B; for Affinités relatives: RA = NFTB/NFeq, reference ligand moracénine B. The protocol:
Une solution de travail de tyrosinase de champignon à 1.25 mg/mL est préparée en dissolvant de la poudre de l'enzyme lyophilisée dans 50 mM d'acétate d'ammonium, avec un pH de 7.0. L'échantillon est préparé en utilisant l'un des solvants suivants : des glycols, DMSO (diméthylsulfoxide), l'éthanol, pur ou en solution dans l'eau. La concentration dans l'échantillon des ligands initiaux est équimolaire et doit être dans la gamme de 0,75 à 1 mM. Les ligands choisis étaient des inhibiteurs connus de la tyrosinase isolés depuis des racines de murier noir (Morus nigra) : la moracénine A, moracénine B et la kuwanone C. Un échantillon de référence est préparé également en diluant l'échantillon de 10 à 20 fois dans une solution d'eau et d'un quart de volume d'acétonitrile.
• 1. Étape de préconditionnement - Des puits à membrane filtrante sont pré-conditionnées avec un volume de 500 µl d'une solution à 85% d'acétate d'ammonium et 15% d'éthanol qui est passé à travers la membrane avec une centrifugation de 14000 g pendant 60 secondes. • 2. Étape de liaison - La préparation de tyrosinase (1.25 mg/mL, 75 µL) est mélangée avec 5 µl de l'échantillon dans un tube d'Eppendorf en plastique, puis est incubée pendant 5 min. Dans ce mélange, on a 9,16 µM de tyrosinase et une gamme de 46,88 µM à 62,5 µM de ligands (moracénine A, moracénine B et kuwanone C) soit un ratio ligands/cible allant de 5,12 à 6,83. • 3. Étape de lavage - le mélange de l'enzyme et de l'échantillon est déposé dans un puits préconditionné à l'étape de préconditionnement, puis centrifugé à 14000 g jusqu'à l'élimination de l'essentiel du solvant. Les complexes enzyme-ligands restent à la surface de la membrane du filtre puis sont à nouveau suspendu dans un volume de 100 µL de la même solution à 85% d'acétate d'ammonium et 15% d'éthanol et centrifugé à 14000 g jusqu'à élimination du solvant. Cette procédure est répétée trois fois et élimine tous les composés qui ne sont pas liés à l'enzyme. • 4. Étape de séparation - Les complexes enzyme-ligands retenus dans le filtre sont à nouveau suspendus dans un volume de 10 µL d'eau ultra-pure, puis sont mélangés avec un volume de 40 µL d'acétonitrile pour dénaturer et précipiter l'enzyme et, en même temps libérer les ligands. Le mélange est centrifugé à 21000 g pendant 10 min pour séparer le précipité du surnageant. • 5. Étape d'analyse - Ledit surnageant formant la solution traitée est analysé par chromatographie en phase liquide couplée à une spectrométrie de masse, connue également par l'acronyme UPLC-MS. L'échantillon de référence est analysé également de la même manière, en utilisant les mêmes conditions d'analyse. Les affinités relatives sont calculées selon la méthode décrite ci-après. De préférence, l'échantillon de référence et la solution traitée sont analysés séquentiellement pour éliminer des dispersions dues aux réglages de l'appareillage.
Une analyse par chromatographie en phase liquide fournit un chromatogramme tel que montré par les figures 1 et 2. Le chromatogramme représente une intensité de signal en fonction du temps de rétention dans une colonne. Le signal présente différents pics d'intensité variable. Chaque pic est associé à l'un des ligands présent dans l'échantillon et la solution traitée. • 1. Normalisation de l'intensité du signal analytique pour les ligands dans l'échantillon de référence. Pour chaque chaque ligand CEi dans l'échantillon de référence, on établit des facteurs de normalisation NFeq dudit ligand CEi par comparaison au ligand de référence REF, selon l'équation suivante : NFeq,CEi = (ISeq,CEi)/(ISeq,REF) [formula] où : • NF est un facteur de normalisation; • ISeq,CEi est l'intensité du signal analytique pour le ligand CEi dans l'échantillon; • ISeq,REF est l'intensité du signal analytique pour le ligand de référence REF dans l'échantillon. L'intensité peut être choisie parmi l'aire du pic ou la valeur maximale du pic. Le facteur de normalisation du ligand de référence vaut toujours 1. • 2. […]

[4] abbreviates: ex. 2, molar ratio 3,5-DCQ-DPG/3,5-DCQ 1/1 (équimolaire).
Setting [5] is: ex. 3.1, molar ratio 3,5-DCQ-DPG/3,5-DCQ 0,5/1.
Where [6] appears, read: ex. 3.2, molar ratio 3,5-DCQ-DPG/3,5-DCQ 0,2/1.
Setting [7] is: ex. 3.3, molar ratio 3,5-DCQ-DPG/3,5-DCQ 3/1.

The text below walks through data of patent EP3516395B1, “METHOD FOR DETERMINING AFFINITY BETWEEN LIGANDS AND A TARGET” (Plant Advanced Technologies Pat, priority 2016, dated 2018).

pIC50: −log10 of the molar value. Like-named read-outs stand apart in the source and are kept apart here.

For `O=C(/C=C/c1ccc(O)c(O)c1)OC1CC(O)(C(=O)O)CC(OC(=O)/C=C/c2ccc(O)c(O)c2)C1O` (stereo not drawn) [3,5-DCQ, acide 3,5-dicaféoylquinique], the “Facteur de normalisation, solution traitée” value (“Facteur de normalisation” for short) in assay [1] (setting [4]), in assay [1] (setting [5]), in assay [1] (setting [6]) and in assay [1] (setting [7]) was 1,00 each time. Further, the Affinités relatives in assay [1] (setting [4]), in assay [1] (setting [5]), in assay [1] (setting [6]) and in assay [1] (setting [7]) was 1,00 in each case. Also, in assay [2], the “activité de la collagénase” value is given as 94%. Moreover, the negative logarithm of the IC50 (pIC50) (in general, −log10 of the IC50, conventionally taken in molar units) in assay [3] was 4.63.
For the molecule `CC(C)=CCc1c(-c2ccc(O)cc2O)oc2c(CC=C(C)C)c(O)cc(O)c2c1=O` [kuwanone C], in the assay on tyrosinase de champignon, the “Facteur de normalisation” value is 0,78 and the Affinités relatives is reported as 1,07.
For “esters d'acide 3,5-dicaféoylquinique et de dipropylène glycol [3,5-DCQ-DPG]”, the “Facteur de normalisation” value is on record as 6,03 in assay [1] (setting [4]), 2,49 in assay [1] (setting [5]), 0,81 in assay [1] (setting [6]) and 13,64 in assay [1] (setting [7]). The Affinités relatives in assay [1] (setting [4]) is 5,21; in assay [1] (setting [5]), 4,05; in assay [1] (setting [6]) it was 3,01; in assay [1] (setting [7]), 4,09. Besides, the “(RADCQ−DPG^Mx)/(RADCQ−DPG^Mref)” value is recorded as 0,96 in assay [1] (sample M_1: collagénase 32,1 µM, DCQ/DCQ-DPG 75/75 µM, ligands/collagénase 2,33, competition); 0,71 in assay [1] (sample M_2: collagénase 32,1 µM, DCQ/DCQ-DPG 50/50 µM, ligands/collagénase 1,56, competition); 0,47 in assay [1] (sample M_3: collagénase 32,1 µM, DCQ/DCQ-DPG 15/15 µM, ligands/collagénase 0,47, no competition). In assay [2] (approximate, from Example 4 (50% activity at 5µM)), the negative-log IC50 (pIC50) is around 5.30. Besides, the “activité de la collagénase” value in assay [2] was determined as 50%.
As for moracénine B, in the assay with tyrosinase de champignon, the “Facteur de normalisation” value is 1,00 and the Affinités relatives was 1,00.
